Measured values reported in ChEMBL document CHEMBL1131679, “Synthesis and activity of sulfonamide-substituted 4,5-diaryl thiazoles as selective cyclooxygenase-2 inhibitors” (Bioorg Med Chem Lett, 1999).

What was measured:
[1] = target: T1, Prostaglandin G/H synthase 2 (Homo sapiens, UniProt P35354); experiment: In vitro inhibitory activity against human Prostaglandin G/H synthase 2 (COX-2)
T1 sequence (P35354 whole entry): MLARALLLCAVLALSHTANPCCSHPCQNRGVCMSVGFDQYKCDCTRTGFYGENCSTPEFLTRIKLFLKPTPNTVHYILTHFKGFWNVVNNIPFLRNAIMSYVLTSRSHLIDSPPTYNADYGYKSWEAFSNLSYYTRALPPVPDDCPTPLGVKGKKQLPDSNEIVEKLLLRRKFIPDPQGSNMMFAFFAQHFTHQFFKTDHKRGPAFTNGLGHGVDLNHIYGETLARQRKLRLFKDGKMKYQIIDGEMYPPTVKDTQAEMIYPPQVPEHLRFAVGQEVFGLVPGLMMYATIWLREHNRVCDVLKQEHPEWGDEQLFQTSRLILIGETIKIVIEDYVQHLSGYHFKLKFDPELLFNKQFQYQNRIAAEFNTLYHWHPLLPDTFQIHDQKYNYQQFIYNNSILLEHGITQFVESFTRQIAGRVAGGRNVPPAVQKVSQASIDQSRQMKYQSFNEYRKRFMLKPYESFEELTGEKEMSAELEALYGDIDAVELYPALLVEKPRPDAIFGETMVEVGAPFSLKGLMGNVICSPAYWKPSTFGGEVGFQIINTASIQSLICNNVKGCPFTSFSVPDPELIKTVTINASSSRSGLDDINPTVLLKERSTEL

[2] = system: Rattus norvegicus; experiment: In vivo activity was determined by rat pouch assay at concentration of 2 mg/kg; format: functional
[3] = target: Prostaglandin G/H synthase 1 (Homo sapiens, UniProt P23219)
Sequence of Prostaglandin G/H synthase 1 (P23219 whole entry): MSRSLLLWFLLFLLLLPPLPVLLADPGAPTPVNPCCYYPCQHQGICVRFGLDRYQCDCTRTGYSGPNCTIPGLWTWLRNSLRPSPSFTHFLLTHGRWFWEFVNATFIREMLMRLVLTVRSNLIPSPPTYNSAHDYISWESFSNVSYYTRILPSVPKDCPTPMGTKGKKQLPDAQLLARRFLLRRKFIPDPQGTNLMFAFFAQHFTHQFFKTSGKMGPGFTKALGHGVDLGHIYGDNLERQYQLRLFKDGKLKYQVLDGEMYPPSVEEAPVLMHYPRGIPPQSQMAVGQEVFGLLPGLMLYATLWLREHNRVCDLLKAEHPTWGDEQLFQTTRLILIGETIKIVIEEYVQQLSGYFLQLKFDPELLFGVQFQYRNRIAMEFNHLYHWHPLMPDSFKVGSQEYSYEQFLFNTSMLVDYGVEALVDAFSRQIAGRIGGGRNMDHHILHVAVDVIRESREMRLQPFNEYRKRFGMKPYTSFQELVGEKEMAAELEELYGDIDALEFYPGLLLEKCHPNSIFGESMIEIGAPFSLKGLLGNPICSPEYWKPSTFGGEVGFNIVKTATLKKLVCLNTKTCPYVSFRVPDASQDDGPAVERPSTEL
Description: Inhibition of human Prostaglandin G/H synthase 1

Structure (SMILES)	IC50 [1] [nM]	inhibition in vivo at 2 mg/kg [2] [%]	IC50 [3] [µM]
Cc1nc(-c2ccccc2)c(-c2ccc(S(N)(=O)=O)cc2)s1	38	59	34
Cc1nc(-c2ccc(S(N)(=O)=O)cc2)c(-c2ccc(Br)cc2)s1	24	–	115
Cc1nc(-c2ccc(S(N)(=O)=O)cc2)c(-c2ccccc2)s1	29	7	72.5
Cc1nc(-c2ccc(S(N)(=O)=O)cc2)c(-c2ccc(Cl)cc2)s1	18	30	35.6
COc1ccc(-c2nc(NCc3ccccc3)sc2-c2ccc(S(N)(=O)=O)cc2)cc1F	59	–	0.01
COc1ccc(-c2nc(C)sc2-c2ccc(S(N)(=O)=O)cc2)cc1F	28	–	4.18
NS(=O)(=O)c1ccc(-c2sc(COc3cc(Cl)cc(Cl)c3)nc2-c2ccc(F)cc2)cc1	–	–	0.12
COc1ccc(-c2nc(-c3ccccc3Cl)sc2-c2ccc(S(N)(=O)=O)cc2)cc1F	2480	33	> 100
Cc1nc(-c2ccc(Cl)cc2)c(-c2ccc(S(N)(=O)=O)cc2)s1	5	42	1.84
NS(=O)(=O)c1ccc(-c2sc(-c3ccccc3Cl)nc2-c2ccc(F)cc2)cc1	13	50	0.08
